Tests used:
[1] = system: lumbar spinal cord motor neurons; experiment: Motor neuron quantification (H&E); assay type: in vivo, mice; conditions: TgSOD1-Cromolyn vs TgSOD1-Vehicle; p=0.0033
Experimental: Longitudinal sections (10 μm) of the lumbar spinal cord were cut from fresh frozen tissue. Hematoxylin and eosin (H&E) staining was performed on the tissue sections as previously described. Within the region containing the ventral horn, all motor neurons are counted for three individual sections per animal (each separated by […]) to cover the areas of highest motor neuron density within the ventral horn. All counting was performed by an individual blinded to the genotypes. Images were acquired using a Zeiss microscope 20× objective (0.8 NA) and processed with Metamorph image analysis software (Molecular Devices).
(§1) 149 male and female age- and litter-matched transgenic (Tg) SOD1^G93A and wild-type (Wt) SOD1^G93A mice were used with the following breakdown: Females (19 WtSOD1-Vehicle, 17 WtSOD1-Cromolyn, 19 TgSOD1-Vehicle, and 17 TgSOD1-Cromolyn) and Males (18 WtSOD1-Vehicle, 21 WtSOD1-Cromolyn, 21 TgSOD1-Vehicle, 17 TgSOD1-Cromolyn).

[2] = system: MCP-1; experiment: CCL2/MCP-1 ELISA assay; assay type: in vivo, mice
Experimental: Spinal cord tissue was homogenized, and supernatants were derived as described in the section related to the Meso Scale Discovery cytokine assay. MCP-1 levels were measured in the supernatants generated from spinal cord tissue or in the plasma using the 96-well Mouse CCL2/JE/MCP-1 Quantikine ELISA Kit (R&D systems, #MJE00B), following the manufacturer's instructions. Briefly, samples and diluted standards were added to the plate coated with MCP-1-specific antibody. Samples were incubated in the plate for 2 hours on a shaker at room temperature, followed by washes with the wash buffer provided in the kit. Subsequently, horseradish peroxidase conjugated antibody against MCP-1 was added to each well and incubated for 2 hours at room temperature on the shaker. The plate was washed with the wash buffer and incubated with Substrate solution for 30 minutes at room temperature. Next, Stop solution was added and the signal was read on a Microplate reader (Synergy 2, Biotek Instruments). The optical density was measured at […] and was corrected with the optical density measured at 540 nm. MCP-1 levels in the samples were calculated based on the MCP-1 standard curve. Protein concentrations in the supernatants were measured by the Pierce BCA protein assay kit (Thermo Scientific). Values in the graphs represent levels of MCP-1 normalized to the corresponding protein concentrations. […]

[3] = system: SOD1^G93A mouse model; experiment: Rotarod; assay type: in vivo, mice; conditions: TgSOD1-Cromolyn vs TgSOD1-Vehicle; 6.3 mg/kg i.p.
Experimental: Mice were placed on a fixed speed (16 rpm) rotating rod (3.0 cm) (Rotamex, Columbus Instruments) as previously described. Mice were trained to remain on the rotarod for 180 seconds once at P40. For each experimental time point (P70, P90, P110, P130, P150), the time mice spent on the rotating rod was calculated up to a maximum of 180 seconds. Three trials were performed for each time point and the greatest value for each session was used for analysis.
as §1

[4] = system: GPR35; experiment: GPR35 immunofluorescence, lumbar spinal cord; assay type: in vivo, mice; conditions: TgSOD1-Cromolyn vs TgSOD1-Vehicle
Experimental: Frozen mouse lumbar spinal cord was sectioned at […] and stained using previously described methods. Tissue sections were fixed with 4% paraformaldehyde and blocked in a mixture of phosphate-buffered saline (PBS), 5% BSA, and normal goat serum. Co-staining was done using antibodies specific for GPR35 (Novus Biologicals, Littleton, Colo.; NBP2-24640) and NeuN (Millipore Sigma, Temecula, Calif.; MAB377 overnight at 4° C. Following three washes with PBS, sections were incubated with Cy3-conjugated goat anti-mouse and FITC-conjugated goat anti-rabbit antibodies (Jackson ImmunoResearch, West Grove, Pa.). Ten 20× fields were imaged from each section and analyzed using open source software from the National Institutes of Health (ImageJ).
as §1

[5] = Body weight of TgSOD1 mice; assay type: in vivo; conditions: TgSOD1-Cromolyn vs TgSOD1-Vehicle
Experimental: Beginning at P50, weight and neurological score (using the ALS TDI criteria) (Hatzipetros, T., et al. (2015). “A Quick Phenotypic Neurological Scoring System for Evaluating Disease Progression in the SOD1-G93A Mouse Model of ALS.” J Vis Exp(104); Leitner M., et. al. (2009). “Working with ALS mice: Guidelines for preclinical testing & colony management.” The Jackson Laboratory) were recorded for each mouse every 5 days until death or euthanasia. ALS TDI criteria are as follows: • Score of 0: Full extension of hind legs away from lateral midline when mouse is suspended by its tail, and mouse can hold this for two seconds, suspended two to three times. • Score of 1: Collapse or partial collapse of leg extension towards lateral midline (weakness) or trembling of hind legs during tail suspension. • Score of 2: Toes curl under at least twice during walking of 12 inches, or any part of foot is dragging along cage bottom/table. • Score of 3: Rigid paralysis or minimal joint movement, foot not being used for generating forward motion. • Score of 4: Mouse cannot right itself within 15 seconds after being placed on either side. *Mice were euthanized upon obtaining a score of 4. […]

## O=C(O)c1cc(=O)c2c(OCC(O)COc3cccc4oc(C(=O)O)cc(=O)c34)cccc2o1 [cromolyn, cromolyn sodium]
[1]
  motor neuron survival (lumbar spinal cord motor neuron counts): significantly increased
[2]; TgSOD1-Cromolyn vs TgSOD1-Vehicle
  MCP-1 levels in the spinal cord: no effect of cromolyn treatment on MCP-1 levels
[2]; any of the groups
  MCP-1 levels in the plasma: not altered
[3]
  rotarod performance: no difference in rotarod performance
[4]; p=0.0411
  neuronal GPR35 levels (co-localized with NeuN): significant increase in neuronal GPR35 levels
[4]; p=0.0449
  GPR35 levels (immunofluorescence intensity): significant increase in GPR35 levels
[5]; 6.3 mg/kg i.p. once daily 5 days per week from P60, overall
  body weight: did not impact body weight
[5]; 6.3 mg/kg i.p., all mice, at P130
  body weight: significant improvement in body weight
